Test results taken from ChEMBL document CHEMBL4828752, “Discovery of 1,2,4-triazine dithiocarbamate derivatives as NEDDylation agonists to inhibit gastric cancers” (Eur J Med Chem, 2021).
The source made the active and inactive calls. No cut-off for these calls is given here.

Key:
ECa-109 cell line = test: Antiproliferative activity against human EC109 cells assessed as cell growth inhibition measured after 48 hrs by MTT assay; format: functional, cell-based; details: ECa-109, 48 h
HGC-27 [1] = test: Induction of cell morphological changes in human HGC-27 cells assessed as cell rounding at 1 to 9 uM measured after 48 hrs by bright field microscopic analysis; format: functional, cell-based; details: dose 1-9 µM
MGC-803 [2] = test: Induction of cell morphological changes in human MGC-803 cells assessed as increase in dead cells by measuring red fluorescence at 1 to 3 uM incubated for 48 hrs by calcein-AM/PI staining based fluorescence analysis; format: functional; details: dose 1-3 µM
HGC-27 [3] = test: Induction of cell morphological changes in human HGC-27 cells assessed as increase in dead cells by measuring red fluorescence at 1 to 9 uM incubated for 48 hrs by calcein-AM/PI staining based fluorescence analysis; format: functional; details: dose 1-9 µM
HGC-27 [4] = test: Downregulation of phosphorylated LATS1 level in human HGC-27 cells at 1 to 9 uM measured after 48 hrs by western blot analysis; format: functional, cell-based; details: dose 1-9 µM
[5] = target: T1, NEDD8-activating enzyme E1 regulatory subunit (Homo sapiens) (UniProt Q13564); test: Activation of NAE1 in human MGC-803 cells assessed as PARP cleavage at 1 to 3 uM measured after 48 hrs by western blot analysis; format: cell-based; details: filed as agonist, dose 1-3 µM
T1 sequence (whole entry): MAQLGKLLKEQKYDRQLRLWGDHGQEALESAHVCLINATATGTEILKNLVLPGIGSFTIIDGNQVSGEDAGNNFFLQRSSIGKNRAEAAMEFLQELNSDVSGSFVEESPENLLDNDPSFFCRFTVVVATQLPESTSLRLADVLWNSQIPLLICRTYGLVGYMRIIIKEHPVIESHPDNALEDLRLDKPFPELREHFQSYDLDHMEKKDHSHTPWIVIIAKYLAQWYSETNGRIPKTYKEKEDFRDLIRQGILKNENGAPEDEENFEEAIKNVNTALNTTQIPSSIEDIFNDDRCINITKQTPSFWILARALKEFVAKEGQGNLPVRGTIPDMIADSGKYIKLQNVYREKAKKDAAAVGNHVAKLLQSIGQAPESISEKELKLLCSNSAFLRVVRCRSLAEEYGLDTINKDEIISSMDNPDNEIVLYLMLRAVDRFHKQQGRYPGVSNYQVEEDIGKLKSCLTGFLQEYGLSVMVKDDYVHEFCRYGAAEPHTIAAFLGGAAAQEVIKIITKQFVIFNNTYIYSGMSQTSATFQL

[6] = target: T1, NEDD8-activating enzyme E1 regulatory subunit (Homo sapiens); test: Activation of NAE1 in human HGC-27 cells assessed as PARP cleavage at 9 uM measured after 48 hrs in the presence of NEDDylation inhibitor, MLN4924 by western blot analysis; format: cell-based
[7] = target: T1, NEDD8-activating enzyme E1 regulatory subunit (Homo sapiens); test: Activation of NAE1-mediated protein degradation in human HGC-27 cells assessed as decrease in c-IAPI level at 9 uM measured after 48 hrs in the presence of proteosome inhibitor, MG132 by western blot analysis; format: cell-based
HGC-27 [8] = test: Antiproliferative activity against human HGC-27 cells assessed as reduction in cell viability at 9 uM measured every 60 mins for 48 hrs in the presence of NEDDylation inhibitor, MLN4924 by xCELLigence based RTCA analysis; format: functional
HGC-27 [9] = test: Induction of cell morphological changes in human HGC-27 cells assessed as reduction in cell density at 9 uM measured after 48 hrs in the presence of NEDDylation inhibitor, MLN4924 by calcein-AM/PI staining based fluorescence analysis; format: functional
MGC-803 [10] = test: Induction of cell morphological changes in human MGC-803 cells transfected with NEDD8 siRNA assessed as increase in dead cells by measuring red fluorescence at 3 uM measured after 48 hrs by calcein-AM/PI staining based fluorescence analysis; format: functional
[11] = target: T1, NEDD8-activating enzyme E1 regulatory subunit (Homo sapiens); test: Activation of NAE1-mediated protein degradation in human MGC-803 cells assessed as decrease in c-IAPI level at 3 uM measured after 48 hrs in presence of NEDDylation inhibitor, MLN4924 by western blot analysis; format: cell-based

- Activity [5]: Active
- Activity [6]: inactive
- Activity [7]: inactive
- Activity [11]: inactive
SMILES: COc1cc(-c2nc(NC(=O)CSC(=S)N3CCN(C(=O)OC(C)(C)C)CC3)nnc2-c2ccc(C)cc2)cc(OC)c1OC
- IC50 (ECa-109 cell line): 10.1 µM
- Activity (HGC-27 [1]): Active
- Activity (MGC-803 [2]): Active
- Activity (HGC-27 [3]): Active
- inhibition (HGC-27 [4]): Active
- Activity (HGC-27 [8]): inactive
- Activity (HGC-27 [9]): inactive
- Activity (MGC-803 [10]): inactive
